Source: ChEMBL document CHEMBL5113549, “Binding versus Enzymatic Processing of ε-Trimethyllysine Dioxygenase Substrate Analogues” (ACS Med Chem Lett, 2022)
The source made the active and inactive calls. No cut-off for these calls is given here.

How the values were obtained:
Homo sapiens [1] = organism: Homo sapiens; experiment: Substrate activity at human recombinant MBP-TMLD (42 to 421 residues) fusion protein expressed in Escherichia coli BL21-AI assessed as ratio of succinate to hydroxylated substrate formation at 500 uM in presence of alpha-ketoglutarate by proton 1D NMR spectroscopy
Homo sapiens [2] = organism: Homo sapiens; experiment: Substrate activity at human recombinant MBP-TMLD (42 to 421 residues) fusion protein expressed in Escherichia coli BL21-AI assessed as hydroxylated substrate formation at 500 uM in presence of alpha-ketoglutarate by proton 1D NMR spectroscopy
Homo sapiens [3] = organism: Homo sapiens; experiment: Binding affinity to human recombinant MBP-TMLD (42 to 421 residues) fusion protein expressed in Escherichia coli BL21-AI assessed as change in entropy by isothermal titration calorimetry
[4] = Binding affinity to human recombinant MBP-TMLD (42 to 421 residues) fusion protein expressed in Escherichia coli BL21-AI by isothermal titration calorimetry
Homo sapiens [5] = organism: Homo sapiens; experiment: Binding affinity to human recombinant MBP-TMLD (42 to 421 residues) fusion protein expressed in Escherichia coli BL21-AI assessed as change in Gibbs free energy by isothermal titration calorimetry
Homo sapiens [6] = organism: Homo sapiens; experiment: Binding affinity to human recombinant MBP-TMLD (42 to 421 residues) fusion protein expressed in Escherichia coli BL21-AI assessed as change in enthalpy by isothermal titration calorimetry
Homo sapiens [7] = organism: Homo sapiens; experiment: Binding affinity to human recombinant MBP-TMLD (42 to 421 residues) fusion protein expressed in Escherichia coli BL21-AI assessed as heat release at 300 uM in presence of co-factor OGA and Co2+ by isothermal titration calorimetry
Homo sapiens [8] = organism: Homo sapiens; experiment: Binding affinity to human recombinant MBP-TMLD (42 to 421 residues) fusion protein expressed in Escherichia coli BL21-AI in presence of 1.18 to 2 fold excess of co-factor Zn2+/OGA by isothermal titration calorimetry
Homo sapiens [9] = organism: Homo sapiens; experiment: Binding affinity to human recombinant MBP-TMLD (42 to 421 residues) fusion protein expressed in Escherichia coli BL21-AI assessed as heat release at 300 uM in presence of co-factor alpha-ketoglutarate and Zn2+ by isothermal titration calorimetry
Homo sapiens [10] = organism: Homo sapiens; experiment: Binding affinity to human recombinant MBP-TMLD (42 to 421 residues) fusion protein expressed in Escherichia coli BL21-AI assessed as heat release at 300 uM in presence of co-factor OGA and Zn2+ by isothermal titration calorimetry

SMILES	Ratio (Homo sapiens [1])	Activity (Homo sapiens [2])	-TdeltaS (Homo sapiens [3])	Kd [4]	deltaG (Homo sapiens [5])	deltaH (Homo sapiens [6])	Activity (Homo sapiens [7])	Activity (Homo sapiens [8])	Activity (Homo sapiens [9])	Activity (Homo sapiens [10])
CC(C)C(=O)N[C@@H](CCCC[N+](C)(C)C)C(=O)[O-]	3.9	12%	–	–	–	–	–	–	–	–
CCC[N+](C)(C)CCCC[C@H](N)C(=O)O	3.4	25%	-5.5 kcal/mol	9.2 µM	-6.9 kcal/mol	-1.4 kcal/mol	–	–	–	–
CC[N+](C)(C)CCCC[C@H](N)C(=O)O	2.1	83%	-0.75 kcal/mol	6 µM	-7.12 kcal/mol	-6.37 kcal/mol	–	–	–	–
CCCC[N+](C)(C)CCCC[C@H](N)C(=O)[O-]	2.4	39%	-5.9 kcal/mol	16.4 µM	-6.52 kcal/mol	-0.6 kcal/mol	–	–	–	–
C[N+](C)(C)CCC[C@H](N)C(=O)O	3.1	28%	-2.5 kcal/mol	7.6 µM	-6.9 kcal/mol	-4.5 kcal/mol	–	–	–	–
CC(C)[N+](C)(C)CCCC[C@H](N)C(=O)O	2.4	51%	-1.2 kcal/mol	11.3 µM	-6.75 kcal/mol	-5.6 kcal/mol	–	–	–	–
C[N+](C)(C)CCCCC[C@H](N)C(=O)O	2.9	30%	-4.9 kcal/mol	25 µM	-6.28 kcal/mol	-1.4 kcal/mol	–	–	–	–
C[N+](C)(C)CCCC[C@H](N)C(=O)O	1.3	97%	-1.66 kcal/mol	5.78 µM	-7.15 kcal/mol	-5.48 kcal/mol	Active	Active	Active	Active
